Source: PubChem BioAssay AID248 (DTP/NCI, 2004)
Toxic doses and inconclusive results are not listed. No stated cut-off is given here; in the data, active means T/C of 150% or more; inactive means T/C below 125%.

System: L1210 leukemia ip in BDF1 mice, survival T/C
Assay: NCI In Vivo Anticancer Drug Screen. Data for tumor model L1210 Leukemia (intraperitoneal) in B6D2F1 (BDF1) mice
Conditions: endpoint: mean survival time, higher = longer survival
Summary of the method: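 Read-out is survival time, reported as the treated-group measurement over the vehicle-control measurement.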

[1] = dose: 12.5 mg/kg/injection, schedule: Q01DX009 (ip), vehicle: saline with Tween-80
[2] = dose: 25.0 mg/kg/injection, schedule: Q01DX009 (ip), vehicle: saline with Tween-80
[3] = dose: 50.0 mg/kg/injection, schedule: Q01DX009 (ip), vehicle: saline with Tween-80
[4] = dose: 100.0 mg/kg/injection, schedule: Q01DX009 (ip), vehicle: saline with Tween-80
[5] = dose: 200.0 mg/kg/injection, schedule: Q01DX009 (ip), vehicle: saline with Tween-80
[6] = dose: 100.0 mg/kg/injection, schedule: Q04DX003 (ip), vehicle: saline with Tween-80
[7] = dose: 200.0 mg/kg/injection, schedule: Q04DX003 (ip), vehicle: saline with Tween-80
[8] = dose: 400.0 mg/kg/injection, schedule: Q04DX003 (ip), vehicle: saline with Tween-80
[9] = dose: 400.0 mg/kg/injection, schedule: Q01DX009 (ip), vehicle: saline with Tween-80
[10] = dose: 100.0 mg/kg/injection, schedule: Q01DX001 (ip), vehicle: saline
[11] = dose: 200.0 mg/kg/injection, schedule: Q01DX001 (ip), vehicle: saline
[12] = dose: 400.0 mg/kg/injection, schedule: Q01DX001 (ip), vehicle: saline
[13] = dose: 25.0 mg/kg/injection, schedule: Q04DX002 (ip), vehicle: saline with Tween-80
[14] = dose: 50.0 mg/kg/injection, schedule: Q04DX002 (ip), vehicle: saline with Tween-80

Measured: T/C

Cc1nc2ccccc2[nH]c1=O
inactive: dose: 75.0 mg/kg/injection, schedule: Q04DX003 (ip), vehicle: saline 96 % of control | dose: 100.0 mg/kg/injection, schedule: Q01DX001 (ip), vehicle: other 97 % of control | dose: 150.0 mg/kg/injection, schedule: Q04DX003 (ip), vehicle: saline 100 % of control | dose: 200.0 mg/kg/injection, schedule: Q01DX001 (ip), vehicle: other 100 % of control | dose: 300.0 mg/kg/injection, schedule: Q04DX003 (ip), vehicle: saline 96 % of control | dose: 400.0 mg/kg/injection, schedule: Q01DX001 (ip), vehicle: other 93 % of control

COc1ccc(/C=C/C(=O)c2cc(C(=O)O)c(OC)cc2OC)cc1OC
inactive: [1] 111 % of control | [2] 93 % of control | [3] 98 % of control | [4] 98 % of control | [5] 95 % of control

CC(=O)Nc1ccc2c(c1)C(NC(=O)/C=C\C(=O)O)c1ccccc1-2 (stereo not given)
inactive: [6] 111 % of control | [7] 98 % of control | [8] 107 % of control

CC1(C)CC(=NNC2=NC=NC3=NC=NC32)CC(C)(C)N1O (stereo not given)
inactive: dose: 25.0 mg/kg/injection, schedule: Q04DX003 (ip), vehicle: saline 98 % of control | dose: 50.0 mg/kg/injection, schedule: Q04DX003 (ip), vehicle: saline 102 % of control | dose: 100.0 mg/kg/injection, schedule: Q04DX003 (ip), vehicle: saline 102 % of control

COc1cc(Cl)ccc1NC(=O)COc1ccc(Cl)cc1
inactive: [4] 92 % of control | [5] 92 % of control | [9] 86 % of control

Cc1ccc(N2CCN(CC(O)COc3ccccc3Cl)CC2)cc1 (stereo not given)
inactive: [10] 95 % of control | [11] 95 % of control | [12] 95 % of control

CCCCN(C=S)CCCC
inactive: [13] 98 % of control | [14] 95 % of control | dose: 100.0 mg/kg/injection, schedule: Q04DX002 (ip), vehicle: saline with Tween-80 102 % of control | [6] 92 % of control

Cc1cn(C2OC(CO)C(O)C(O)C2O)c(=O)[nH]c1=O (stereo not given)
inactive: [10] 97 % of control | [11] 97 % of control | [12] 94 % of control

S=c1[nH]c2ccccc2n1CCc1ccncc1
inactive: [10] 100 % of control | [11] 97 % of control | [12] 95 % of control

O=C(C[N+]12CC=C(CO)C1C(O)CC2)c1ccc(Br)cc1 (stereo not given)
inactive: [10] 104 % of control | [11] 101 % of control

CCOC(CCc1c(-c2ccc([N+](=O)[O-])cc2)nc(N)[nH]c1=O)OCC
inactive: [4] 95 % of control | [5] 111 % of control | [9] 95 % of control

CSP(N)(N)=O
inactive: dose: 5.0 mg/kg/injection, schedule: Q01DX001 (ip), vehicle: saline 97 % of control | dose: 10.0 mg/kg/injection, schedule: Q01DX001 (ip), vehicle: saline 103 % of control

CCNC(=O)Oc1c(Cl)cc(S(=O)(=O)F)cc1Cl
inactive: [1] 90 % of control | dose: 12.5 mg/kg/injection, schedule: Q04DX002 (ip), vehicle: saline with Tween-80 93 % of control | [2] 103 % of control | [13] 101 % of control | [14] 96 % of control

CCn1c2ccccc2c2cc3c(cc21)C(C)=NCC3
inactive: dose: 25.0 mg/kg/injection, schedule: Q04DX002 (ip), vehicle: Klucel (hydroxypropylcellulose) (HPC) 112 % of control | dose: 50.0 mg/kg/injection, schedule: Q04DX002 (ip), vehicle: Klucel (hydroxypropylcellulose) (HPC) 102 % of control | dose: 100.0 mg/kg/injection, schedule: Q04DX002 (ip), vehicle: Klucel (hydroxypropylcellulose) (HPC) 102 % of control

CCOC(=O)N(C)c1ccccc1
inactive: dose: 100.0 mg/kg/injection, schedule: Q01DX009 (ip), vehicle: Klucel (hydroxypropylcellulose) (HPC) 101 % of control | dose: 100.0 mg/kg/injection, schedule: Q04DX003 (ip), vehicle: Klucel (hydroxypropylcellulose) (HPC) 97 % of control | dose: 200.0 mg/kg/injection, schedule: Q01DX009 (ip), vehicle: Klucel (hydroxypropylcellulose) (HPC) 105 % of control | dose: 200.0 mg/kg/injection, schedule: Q04DX003 (ip), vehicle: Klucel (hydroxypropylcellulose) (HPC) 97 % of control | dose: 400.0 mg/kg/injection, schedule: Q01DX009 (ip), vehicle: Klucel (hydroxypropylcellulose) (HPC) 101 % of control | dose: 400.0 mg/kg/injection, schedule: Q04DX003 (ip), vehicle: Klucel (hydroxypropylcellulose) (HPC) 97 % of control

CC#CC(=O)c1ccccc1
inactive: dose: 7.5 mg/kg/injection, schedule: Q04DX003 (ip), vehicle: saline 97 % of control | dose: 15.0 mg/kg/injection, schedule: Q04DX003 (ip), vehicle: saline 94 % of control | dose: 30.0 mg/kg/injection, schedule: Q04DX003 (ip), vehicle: saline 95 % of control

COc1ccc(C2(C#N)CC2)cc1
inactive: [4] 86 % of control | [6] 101 % of control | [5] 88 % of control | [7] 101 % of control | [9] 103 % of control | [8] 103 % of control

Cc1coc(NS(=O)(=O)c2ccc(N=Nc3c(N)nc(N)nc3N)cc2)c1C
inactive: [10] 97 % of control | [11] 94 % of control | [12] 97 % of control

CC1NCc2c(N)ncnc21 (stereo not given)
inactive: dose: 100.0 mg/kg/injection, schedule: Q01DX001 (ip), vehicle: carboxymethylcellulose (CMC) 106 % of control | dose: 200.0 mg/kg/injection, schedule: Q01DX001 (ip), vehicle: carboxymethylcellulose (CMC) 112 % of control | dose: 400.0 mg/kg/injection, schedule: Q01DX001 (ip), vehicle: carboxymethylcellulose (CMC) 98 % of control

O=Cc1cc([N+](=O)[O-])ccc1Cl
inactive: [3] 101 % of control | [4] 100 % of control | [6] 96 % of control | [5] 95 % of control | [7] 97 % of control

CCN(C(=O)Nc1cccc2ccccc12)c1ccccc1C
inactive: dose: 100.0 mg/kg/injection, schedule: Q01DX009 (ip), vehicle: gum acacia 100 % of control | dose: 100.0 mg/kg/injection, schedule: Q04DX003 (ip), vehicle: gum acacia 98 % of control | dose: 200.0 mg/kg/injection, schedule: Q01DX009 (ip), vehicle: gum acacia 96 % of control | dose: 200.0 mg/kg/injection, schedule: Q04DX003 (ip), vehicle: gum acacia 98 % of control | dose: 400.0 mg/kg/injection, schedule: Q01DX009 (ip), vehicle: gum acacia 86 % of control | dose: 400.0 mg/kg/injection, schedule: Q04DX003 (ip), vehicle: gum acacia 96 % of control

Cc1cc(NCCN(C(C)C)C(C)C)nc(Nc2nc3ccc(Cl)cc3[nH]2)n1
inactive: [1] 98 % of control | [3] 91 % of control

COc1cccc(CN)c1
inactive: [6] 99 % of control | [7] 100 % of control | [8] 94 % of control
